From paper PMC7251097, “Aspartate/asparagine-β-hydroxylase: a high-throughput mass spectrometric assay for discovery of small molecule inhibitors” (Scientific Reports, 2020)
Several values for one entry are separate records, joined by “and”; a condition that tells them apart may be missing. Equal values may be shown once. Where a name gives a salt, the structure may show the parent alone. Read-outs that look alike come from different tables or passages of the source.

Molecular target: T1, His6-AspH315–758 (human aspartate/asparagine-β-hydroxylase, AspH) (Homo sapiens, UniProt Q12797)
T1 construct: N-Terminally His6-tagged human AspH315–758 (His6-AspH315–758) was produced in E. coli BL21 (DE3) cells; made in house; host or cells: E. coli BL21 (DE3), pET-28a(+) vector
T1 sequence (Q12797 315-758): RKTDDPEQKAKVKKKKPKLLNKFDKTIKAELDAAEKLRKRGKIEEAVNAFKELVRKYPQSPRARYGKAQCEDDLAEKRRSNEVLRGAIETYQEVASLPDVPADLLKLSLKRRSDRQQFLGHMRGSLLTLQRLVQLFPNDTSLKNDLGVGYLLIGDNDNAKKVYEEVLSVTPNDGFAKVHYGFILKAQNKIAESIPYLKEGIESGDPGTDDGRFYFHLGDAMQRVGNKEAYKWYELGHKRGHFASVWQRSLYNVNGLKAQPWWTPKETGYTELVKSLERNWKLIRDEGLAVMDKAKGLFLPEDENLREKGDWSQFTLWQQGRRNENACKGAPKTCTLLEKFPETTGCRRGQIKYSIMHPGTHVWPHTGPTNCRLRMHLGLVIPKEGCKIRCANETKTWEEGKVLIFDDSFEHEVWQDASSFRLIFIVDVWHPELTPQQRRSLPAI
Test: SPE-MS AspH inhibition assay (LOPAC screen at fixed 20 μM and IC50 dose-response), hydroxylation of cyclic peptide hFX-CP101–119
Assay type: biochemical
Conditions: for Plate 5 (% inhibition) / Plate 5 (% conversion): plate 5 (Pfitzer), test compounds at fixed 20 μM; for Plate 5 (% conversion): mean conversion DMSO 32.88; for IC50: read-out: IC50; for inhibition at 20 µM: read-out: Plate 2 (% inhibition)

[1] = LOPAC compound at 20uM, plate 2, conversion of substrate peptide
[2] = LOPAC compound at 20uM, plate 2, normalised to DMSO and 2,4-PDCA controls
[3] = LOPAC compound at fixed 20 uM, plate 1, normalised to DMSO and 2,4-PDCA controls
[4] = LOPAC compound at fixed 20 uM, substrate conversion, plate 1
[5] = 50 nM His6-AspH315–758, 1.0 μM hFX-CP101–119, 3 μM 2OG, 2 μM Fe(II), 50 mM HEPES pH 7.5, 20 °C, mean ± SD, n = 2 (2,4-PDCA n = 10)

## NC(N)=Nc1ccc2[nH]c3c(c2c1)C[C@@]1(O)[C@H]2Cc4ccc(O)c5c4[C@@]1(CCN2CC1CC1)[C@H]3O5.O=C(O)C(F)(F)F.O=C(O)C(F)(F)F [GNTI, Guanidinyl-naltrindole di-trifluoroacetate, reference compound]
  Plate 2 (% conversion): 1.92%
20 µM
  Inhibition at 20 µM [%]: 100% and 101.7%
pH 7.5
  IC50 [μM]: inactive

## Br.Br.CN(C)CCCc1cc(C(=O)Nc2ccc(-c3ccncc3)cc2)ccc1O [GR 55562 dihydrobromide]
[1]
  Plate 2 (% conversion): 31.31%
[2]
  Plate 2 (% inhibition): 13.87%

## OC[C@H]1O[C@@H](n2cnc3c(N[C@H]4CCC[C@@H]4O)ncnc32)[C@H](O)[C@@H]1O [GR 79236X]
[3]
  Plate 1 (% inhibition): -7.17%
[4]
  Plate 1 (% conversion): 38.28%

## Cn1cc(C(=O)OCC2CCN(CCNS(C)(=O)=O)CC2)c2ccccc21 [GR 113808]
[3]
  Plate 1 (% inhibition): -5.71%
[4]
  Plate 1 (% conversion): 37.79%

## O=S(=O)(N[C@H](CO)C(C(F)(F)F)C(F)(F)F)c1ccc(Cl)s1 [GSI-953]
  Plate 5 (% inhibition): 5.55%
  Plate 5 (% conversion): 34.43%

## O=C(O)CCNc1cc(N2CCc3ccccc3CC2)nc(-c2ccccn2)n1 [GSK-J1, reference compound]
[5]
  IC50: 12.9 ± 1.05 µM

## CCOC(=O)CCNc1cc(N2CCc3ccccc3CC2)nc(-c2ccccn2)n1 [GSK-J4, reference compound]
[5]
  IC50 [μM]: inactive

## O=C1Nc2ccc(I)cc2/C1=C/c1cc(Br)c(O)c(Br)c1 [GW5074, reference compound]
  Inhibition at 20 µM [%]: 101.1%
pH 7.5
  IC50: 2.48 ± 0.14 µM

## CC(C)(Sc1ccc(CCN(CCCCC2CCCCC2)C(=O)NC2CCCCC2)cc1)C(=O)O [GW7647]
[1]
  Plate 2 (% conversion): 29.96%
[2]
  inhibition at 20 µM: 17.9%

## O=C(O)CCc1ccc(NCc2cccc(Oc3ccccc3)c2)cc1 [GW9508]
[1]
  Plate 2 (% conversion): 35.17%
[2]
  inhibition at 20 µM: 2.34%

## CC1=NN=C(c2ccc(N)cc2)c2cc3c(cc2C1)OCO3.Cl [GYKI 52466 hydrochloride]
  Plate 2 (% conversion): 38.91%
[2]
  Plate 2 (% inhibition): -8.84%

## Cl.NC1C=CC=C(C(=O)O)C1 (stereo not drawn) [Gabaculine hydrochloride]
  Plate 1 (% conversion): 33.90%
  Plate 1 (% inhibition): 5.88%

## CC[N+](CC)(CC)CCOc1cccc(OCC[N+](CC)(CC)CC)c1OCC[N+](CC)(CC)CC [Gallamine triethiodide]
[1]
  Plate 2 (% conversion): 33.88%
[2]
  inhibition at 20 µM: 6.21%

## CC(=O)[C@H]1CC[C@H]2[C@@H]3CC[C@H]4C[C@](C)(O)CC[C@]4(C)[C@H]3CC[C@]12C [Ganaxolone]
  Plate 2 (% conversion): 36.34%
  inhibition at 20 µM: -1.16%

## Nc1nc(O)c2ncn(COC(CO)CO)c2n1 [Ganciclovir]
[1]
  Plate 2 (% conversion): 35.57%
[2]
  inhibition at 20 µM: 1.14%

## Nc1ccn([C@@H]2O[C@H](CO)[C@@H](O)C2(F)F)c(=O)n1 [Gemcitabine hydrochloride]
[3]
  Plate 1 (% inhibition): 11.04%
[4]
  Plate 1 (% conversion): 32.17%

## COC(=O)C1=CO[C@@H](O)[C@@H]2C(CO)=CC[C@H]12 [Genipin]
[1]
  Plate 2 (% conversion): 36.58%
[2]
  inhibition at 20 µM: -1.85%

## O=c1c(-c2ccc(O)cc2)coc2cc(O)cc(O)c12 [Genistein]
[1]
  Plate 2 (% conversion): 19.78%
[2]
  inhibition at 20 µM: 48.3%

## CCOc1ncc(S(=O)(=O)N2CCN(CC)CC2)cc1-c1nc2c(CC)n(CCOC)nc2c(=O)[nH]1.O=S(=O)(O)c1ccccc1 [Gisadenafil besylate salt]
  Plate 1 (% conversion): 43.96%
  Plate 1 (% inhibition): -24.07%

## CCOc1ncc(S(=O)(=O)N2CCN(CC)CC2)cc1-c1nc2c(CC)n(CCOC)nc2c(=O)[nH]1 [Gisadenafil]
  Plate 5 (% inhibition): 10.85%
  Plate 5 (% conversion): 32.62%

## Cc1cnc(C(=O)NCCc2ccc(S(=O)(=O)NC(=O)NC3CCCCC3)cc2)cn1 [Glipizide]
[2]
  inhibition at 20 µM: -8.88%

## Cc1cc2c(C(C)C)c(O)c(O)c(C=O)c2c(O)c1-c1c(C)cc2c(C(C)C)c(O)c(O)c(C=O)c2c1O [Gossypol]
  Plate 3 (% conversion): 4.73%

## CN1C2CCCC1CC(NC(=O)c1nn(C)c3ccccc13)C2 (stereo not drawn) [Granisetron hydrochloride]
LOPAC Plate 4, compound at 20 uM, substrate conversion
  % conversion: 34.30%

## N=C(N)N/N=C/c1c(Cl)cccc1Cl [Guanabenz acetate]
[1]
  Plate 2 (% conversion): 34.67%
[2]
  inhibition at 20 µM: 3.85%

## CNCCNS(=O)(=O)c1cccc2cnccc12.Cl.Cl [H-8 dihydrochloride]
LOPAC compound at 20uM, plate 3, conversion of substrate peptide
  Plate 3 (% conversion): 37.53%
